# Test results reported in US7951906B2, “Compounds capable of interacting with a cell-surface fibroblast growth factor receptor” (Enkam Pharmaceuticals A/S, priority 2002, dated 2011).
# Positions of bridges follow the written chain, without caps; N, C: chain ends. Chains are numbered I, II in the order given. No end group written: not given here.
# T1: FGFR1 Ig modules 2, 3 (Mus musculus, UniProt P16092)
# T1 construct: amino acids 249-365 and 141-365 of FGFR (swissprot p16092), respectively; made in house; host or cells: Drosophila S2 cells
# T1 sequence (P16092 141-365): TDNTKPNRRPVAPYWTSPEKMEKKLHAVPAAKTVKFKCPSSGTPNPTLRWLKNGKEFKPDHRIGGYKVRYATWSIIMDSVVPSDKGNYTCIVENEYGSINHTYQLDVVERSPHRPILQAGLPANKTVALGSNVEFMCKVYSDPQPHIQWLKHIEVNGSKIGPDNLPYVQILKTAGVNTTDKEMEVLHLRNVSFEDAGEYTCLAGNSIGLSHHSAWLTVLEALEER
# Experiments:
# FGFR1 Ig modules 2, 3 = target: T1, FGFR1 Ig modules 2, 3; experiment: SPR binding to immobilized FGFR Ig modules 2, 3; settings: for coefficient of dissociation: immobilized FGFR modules 2, 3
# Description: The NCAM F3 modules 1, 2 (without expression of exons a, AAG), and FGFR1 Ig modules 2, 3 were produced using rat NCAM cDNA and mouse FGFR1 (IIIC iso-form) cDNA. The F3 module 1 and the combined F3 modules 1, 2 consist of […] (SEQ ID NO:173) and amino acids 507-611 and 507-705 of NCAM (swissprot p13596), respectively. […] The FGFR Ig module 2 consists of […] […] The FGFR Ig module 3 and the combined Ig modules 2, 3 consist of […] (SEQ ID NO:174) and amino acids 249-365 and 141-365 of FGFR (swissprot p16092), respectively. […] All the proteins were purified by affinity chromatography using Ni2^+−NTA resin (Qiagen, USA) and/or ion exchange chromatography and gel filtration. ^15N-labelled F3 module 2 was produced as described (Thomsen et al., 1996). The NCAM Ig modules 1, 2 and 3 (RV and amino acids 20-308 of rat NCAM, swissprot p13596) was produced as described (Soroka et al., 2002).
# The flow-rate was 5 μl/min. […] The FGFR Ig modules 2, 3 were immobilized on a sensor chip CM5 using amine coupling kit (Biosensor AB) as follows: 1) the two halves of the chip (designated Fc1 and Fc2) were activated by 20 μl activation solution; 2) the protein was immobilized on Fc1 using 12 μl 20 μg/ml protein in 10 mM sodium phosphate buffer pH 6.0; 3) Fc1 and Fc2 were blocked by 35 μl blocking solution. […] The resulting curve was used for analysis.
# hippocampal neurons = experiment: Neurite outgrowth from hippocampal neurons; type: cell-based, rat; settings: for retained stimulatory effect relative to the entire (non-mutated) FG loop peptide: peptides 50 μM; for stimulation of neurite outgrowth / length of neurites: 24 h, 5 μM F3 module 2
# Protocol: Dissociated neurons from embryonic rat hippocampus (embryonic day 19), prepared as described (Skladchikova et al., 1999), were grown on Permanox plastic (Nunc) for 24 h at a density of 6000 cells/cm^2, at 37° C., 5% CO2 in Neurobasal medium containing 20 mM Hepes, 100 U/ml penicillin, 100 μg/ml streptomycin, 0.4% BSA supplemented with B27 (Gibco BRL) and the below specified compounds. After 24 h, cells were fixed with paraformaldehyde, stained with Coomassie Brilliant Blue R250 and the length of neurites was measured as described (Skladchikova et al, 1999).
# human FGFR1 = target: T2, human FGFR1 (Homo sapiens, UniProt P11362); experiment: FGFR1 phosphorylation, Assay 1 (TREX-293 cells, StrepII-tagged FGFR1); type: cell-based; settings: 20 min, 5 μM F3 module, 2.5 μM dendrimeric FG loop peptide
# T2 construct: expressed in transfected cells; host or cells: TREX-293 cells (Invitrogen), Flp-In system
# T2 sequence (P11362 22-822): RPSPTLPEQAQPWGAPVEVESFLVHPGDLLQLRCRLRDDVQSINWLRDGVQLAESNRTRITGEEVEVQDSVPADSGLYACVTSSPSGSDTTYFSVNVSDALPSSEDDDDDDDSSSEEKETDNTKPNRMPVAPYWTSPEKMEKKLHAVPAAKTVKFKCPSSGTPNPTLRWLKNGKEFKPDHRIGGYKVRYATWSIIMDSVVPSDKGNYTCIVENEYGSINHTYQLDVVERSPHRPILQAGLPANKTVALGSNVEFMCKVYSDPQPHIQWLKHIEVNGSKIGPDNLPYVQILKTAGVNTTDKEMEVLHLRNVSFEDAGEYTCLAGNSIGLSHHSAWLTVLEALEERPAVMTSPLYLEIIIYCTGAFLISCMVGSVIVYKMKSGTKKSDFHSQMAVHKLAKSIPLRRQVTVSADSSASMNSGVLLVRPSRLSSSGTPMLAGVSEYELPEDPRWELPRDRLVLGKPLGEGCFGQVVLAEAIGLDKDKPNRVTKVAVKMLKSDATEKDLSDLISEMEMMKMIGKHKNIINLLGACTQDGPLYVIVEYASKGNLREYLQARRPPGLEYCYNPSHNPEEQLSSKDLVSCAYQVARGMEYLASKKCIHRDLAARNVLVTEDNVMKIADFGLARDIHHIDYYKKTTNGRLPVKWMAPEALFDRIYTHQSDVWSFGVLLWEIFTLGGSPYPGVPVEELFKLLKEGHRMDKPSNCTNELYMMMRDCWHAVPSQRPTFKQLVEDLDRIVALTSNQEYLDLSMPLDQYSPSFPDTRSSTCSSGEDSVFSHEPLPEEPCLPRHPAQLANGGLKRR
# Protocol: Assay 1: TREX-293 cells (Invitrogen) were stably transfected with human FGFR1 having a C-terminal StrepII-tag (IBA biotech), using the Flp-In system (Invitrogen). For the study of phosphorylation: ˜2×10^7 cells were starved overnight before stimulation for 20 min with the specified compounds. Cells were lysed in PBS with 1% NP-40 and phosphatase inhibitors cocktail set II (Calbiochem). The cleared cell lysates were incubated with 50 μl agarose-coupled anti-phosphotyrosine antibodies (4G10-AC, Upstate Biotechnologies) for 3 hrs at 4° C. Care was taken to calibrate the amount of cells employed, so that considerable increases in phosphorylated FGFR could be detected. The bound protein was washed, eluted using 150 mM phenyl phosphate (Sigma), precipitated by 12% trichloroacetic acid, washed in cold acetone and dissolved in SDS-PAGE sample buffer. Immunoblotting was performed using antibodies against the recombinant StrepII-tag (IBA biotech). For immunoprecipitation: ˜1×10^7 cells were transiently transfected with the 180 kDa NCAM isoform or a control vector. Cells were incubated for 24 h and then starved overnight. After lysis, FGFR was purified on a StrepTactin Minicolumn (IBA Biotech) according to the manufacturer's instructions, and analyzed by immunoblotting with polyclonal antibodies against human NCAM.
# [1] = test system: polyclonal antibody raised against the intact FGL-peptide; experiment: Competitive ELISA of immunoreactivity with antibody raised against FGL-peptide; type: binding; settings: rabbit serum
# Description: Antibody specifically recognising an epitope comprising SEQ ID NO: 1 (FGL-peptide) were raised in rabbits according the standard procedure (Gill B M, Barbosa J A, Dinh T Q, Garrod S, O'Connor D T: Chromogranin B: isolation from pheochromocytoma, N-terminal sequence, tissue distribution and secretory vesicle processing. Regul Peptides 33:223-35, 1991). Synthetic FGL-peptide was coupled to a carrier protein, KLH (Keyhole Limpets Hemocyanin). The peptide was mixed with Freunds incomplete adjuvant and the mixture was injected into rabbits. 208 μg peptide was used per immunisation (per rabbit).
# Antibodies (serum) were tested for specificity by competitive ELISA using a series FGL-peptide truncated variants according to the protocol described in R. J. Jenny, T. L. Messier, L. A. Ouellette, and W. R. Church, Methods Enzymol. 222, 400 (1993). 100% immunoreactivity was ob-served only with the intact FGL-peptide consisting of SEQ ID NO: 1.
molecule,measurement,setting,value
dendrimeric EF loop peptide: four peptide sequences of SEQ ID NO: 9 connected to a three-lysine backbone through their C-termini (TIMGLKPETRYAVR; also: four copies linked via C-termini to three-lysine dendrimer backbone),binding to the immobilized FGFR modules,"FGFR1 Ig modules 2, 3",real-time binding
"nonamer V^76-S^84: truncated version of the FG loop peptide, residues V^76-S^84 (VAENQQGKS; NCAM Fn III, 2 [Swiss-Prot P13591] FGFR binding motif (Variant))",retained stimulatory effect relative to the entire (non-mutated) FG loop peptide,hippocampal neurons; hippocampal neurons,approximately 50%
"SEQ ID NO:151: truncated version of the FG loop peptide, residues A^77-K^83 of the NCAM F3 module 2 (AENQQGK; NCAM Fn III, 2 [Swiss-Prot P13591] FGFR binding motif (Variant))",neurite outgrowth in dose-response study,"hippocampal neurons; hippocampal neurons, neurite length versus concentration",induced neurite outgrowth with a bell-shaped curve
same,retained stimulatory effect relative to the entire (non-mutated) FG loop peptide,hippocampal neurons; hippocampal neurons,approximately 50%
"SEQ ID NO:171: 11-amino acid fragment of SEQ ID NO: 5 (axonal-associated cell adhesion molecule), two amino acids truncated from the C-terminus (VAENSRGKNVA; Axonal-associated cell adhesion molecule [NCBI NP_446331] FGFR binding motif)",stimulation of neurite outgrowth / length of neurites,hippocampal neurons; hippocampal neurons,capable of stimulation of neurite outgrowth
same,concentration of the peptide at maximal effect,"hippocampal neurons; hippocampal neurons, neurite outgrowth",about 0.3 μg/ml
"Cc1c[nH]c(/C=C2\C(=O)Nc3ccccc32)c1CCC(=O)O [SU54402, reference compound]",block of neurite outgrowth stimulation by the EF loop peptide,hippocampal neurons; hippocampal neurons,specifically blocked
"YKK: the FG loop peptide in which Y^74, K^83 and K^85 were substituted with alanine (EVAVVAENQQGASAA)",inhibition of the stimulatory effect of the peptide by ATP,"hippocampal neurons; 50 μM peptide, ATP 0.4, 1.0 mM",could no longer be inhibited
same,stimulation of neurite outgrowth / length of neurites,hippocampal neurons; hippocampal neurons,retained its neuritogenic potency
same,retained stimulatory effect relative to the entire (non-mutated) FG loop peptide,hippocampal neurons; hippocampal neurons,about 60%
"I: EVYVVAENQQGKSKAKK / II: EVYVVAENQQGKSKAK / III: EVYVVAENQQGKSKA / IV: EVYVVAENQQGKSKA (amide I:16-IV:C, I:17-II:C, II:16-III:C (inferred)) [dendrimeric FG loop peptide]",coefficient of dissociation,"FGFR1 Ig modules 2, 3",3.97±2.29×10^−3 s^−1
same,kon,"FGFR1 Ig modules 2, 3; immobilized FGFR modules 2, 3, read-out: coefficient of association",2070 ± 1.08e+06 M⁻¹ s⁻¹
same,FGFR phosphorylation compared to the non-stimulated cells,human FGFR1,substantially increase
"t4: truncated FGL-peptide lacking the three C-terminal amino acids (EVYVVAENQQGK; NCAM Fn III, 2 [Swiss-Prot P13591] FGFR binding motif (variant))",immunoreactivity,[1],80%
"TIMGLKPETRYAVR (FIII,1 domain of NCAM (Swiss-Prot P13591) FGFR binding motif) [EF loop peptide, peptide corresponding to residues T^573-R^586 of the NCAM F3 module 1]",binding to the immobilized FGFR modules,"FGFR1 Ig modules 2, 3",cannot be detected
same,stimulation of neurite outgrowth / length of neurites,hippocampal neurons; hippocampal neurons,stimulate the neurite outgrowth significantly
"t1: truncated FGL-peptide lacking the three N-terminal amino acids (VVAENQQGKSKA; NCAM Fn III, 2 [Swiss-Prot P13591] FGFR binding motif (variant))",immunoreactivity,[1],40%
peptide derived from FGF2: peptide from a loop region in FGF2 similar to the heptameric NCAM peptide (AMKEDGR; FGF2),stimulation of neurite outgrowth / length of neurites,hippocampal neurons; hippocampal neurons,to the same extent as the similar NCAM peptide
"Nc1ncnc2c1ncn2[C@@H]1O[C@H](COP(=O)(O)OP(=O)(O)CP(=O)(O)O)[C@@H](O)[C@H]1O [AMP-PCP, reference compound]",inhibition of the neuritogenic effect induced by the F3 module 2,"hippocampal neurons; 5 μM F3 module, ATP or AMP-PCP 0.4, 1.0 mM",complete inhibition
same,inhibition of the neuritogenic effect induced by the FG loop peptide,"hippocampal neurons; 50 μM peptide, ATP or AMP-PCP 0.4, 1.0 mM",complete inhibition
"NCAM F3 modules 1, 2: recombinant protein: AGHHHHHH and amino acids 507-705 of rat NCAM (swissprot p13596) (protein) AGHHHHHHQADTPSSPSIDRVEPYSSTAQVQFDEPEATGGVPILKYKAEWKSLGEEAWHSKWYDAKEANMEGIVTIMGLKPETRYAVRLAALNGKGLGEISAATEFKTQPVREPSAPKLEGQMGEDGNSIKVNLIKQDDGGSPIRHYLVKYRALASEWKPEIRLPSGSDHVMLKSLDWNAEYEVYVVAENQQGKSKAAHFVFRTSAQ",binding to the immobilized FGFR modules,"FGFR1 Ig modules 2, 3",binds
same,coefficient of dissociation,"FGFR1 Ig modules 2, 3",5.56±0.07×10^−3 s^−1
"NCAM Ig modules 1, 2 and 3: control protein: RV and amino acids 20-308 of rat NCAM, swissprot p13596 (protein) RVLQVDIVPSQGEISVGESKFFLCQVAGDAKDKDISWFSPNGEKLSPNQQRISVVWNDDDSSTLTIYNANIDDAGIYKCVVTAEDGTQSEATVNVKIFQKLMFKNAPTPQEFKEGEDAVIVCDVVSSLPPTIIWKHKGRDVILKKDVRFIVLSNNYLQIRGIKKTDEGTYRCEGRILARGEINFKDIQVIVNVPPTVQARQSIVNATANLGQSVTLVCDADGFPEPTMSWTKDGEPIENEEEDDEKHIFSDDSSELTIRNVDKNDEAEYVCIAENKAGEQDASIHLKVFAK",binding to the immobilized FGFR modules,"FGFR1 Ig modules 2, 3",does not bind
